# In article PMC13162264, “Chemoproteomic Elucidation of β‑Lactam Drug Targets in Mycobacterium abscessus” (ACS Infectious Diseases, 2026):
# Read-outs that look alike come from different tables or passages of the source.
# B1: Ldt4 (Mycobacteroides abscessus ATCC 19977) (protein)
# chain: GDVPPLPVGLLKNSPNNGDVVGVAQPITIVFAAPVTDKKAAEAAVKITTSKPAPGYFYWYTDQQLRWKPTQFWPANTDVNVNAGGTKWSFKVGDAFVSTVDDATYTMTVTRNGVVERTMPISMGKHDKKHETKNGTYYVSEKFQKMVMDSSTYGVPVNSAEGYKLDVYWATRLSNSGIFVHAAPWSVGAQGKSDTSHGCINVNTDNATWFFNQSHPGDPVIVKNSPGGPYKDYDGYDDWQRF
# B2: PbpB (Mycobacteroides abscessus ATCC 19977) (protein)
# chain: GPRAAGLRAEASGQLKVTETEKALRGTIVDRAGNKLAFTIEARALTFQPKKIREQLNKAWEKSQEILKDPGKSDADKAAAAKIRSVEPERRLQDIANGVSAKLGNKPDAKSLLKKIRSDDTFAYLARSVDPGIAAQITKEFPEVGAERQDIRQYPGGSLAANIVGSIDWEGYGLLGLEDSLDSALAGKDGSLTYDRGSDGAVIPGSYRDRHDAVNGSTVELTLDNDIQFYVQQQVQQAKDLSEARSVSAVVLDSKTGEVLAMANDNTFDPSQNLGKQGNREMGNLSVSSPFEPGSVNKVITASAVIENDLSNPDEVLQVPGSINMGGVTVRDAWPHGTVPFTTTGVFGKSSNVGTLMLAQRVGPERFMDLVDKFGLGQRTGVGLPGESAGIVPPIEQWSGSTFSNLPIGQGLSMTLLQMAGMYQAIANDGVRIPPRIVKSITAPDGSRKEEPRPEPVQVVNAGTARTVRNMLRAVLQPDARQIQNGTGASGAVDGYQLSGKTGTAQQINPACGCYFDDVYWITFAGIATTDDPRYVIGIEMNAPKRGSDGSPHMTAAPLFHNIASWLMRRENVPLSPDPGPPLILQAT
# Assays:
# [1] = molecular target: T1, Ldt4 (Mycobacteroides abscessus, UniProt B1MKW1); test: β-lactam competition of ABP labeling, recombinant enzyme; format: binding, Mycobacterium abscessus; details: drug 500 μM, 30 min 37 °C, then 10 μM Mero-sCy5 or Bocillin FL
# [2] = molecular target: T2, DacB2 (Mycobacteroides abscessus, UniProt B1MDJ1); test: as above; details: drug 500 μM, 30 min 37 °C, then 10 μM Mero-sCy5 or Bocillin FL
# Procedure: Purified protein was incubated with drug or buffer only before labeling with either Mero-sCy5 or Bocillin FL. Samples were then resolved by SDS-PAGE and imaged for quantification.
# Purified protein (3 μg) was combined with drug (500 μM) or buffer (no treatment, NT) in 10 mM HEPES pH 7.5 (30 min, 37 °C). Samples were then labeled with 10 μM ABP (Mero-sCy5 or Bocillin FL) for 1 h at 37 °C. Labeled protein was resolved via SDS-PAGE (1 μg/lane) and fluorescent signal was quantified as mean intensity of three independent replicates. Error is reported as standard deviation and statistical significance was determined by one-way ANOVA with Tukey multiple comparisons test.
# β-lactam Competition of ABP Labeling
# Purified enzymes (3 μg) were incubated with 500 μM imipenem monohydrate (IPM,
# MedChemExpress, CAS 74431-23-5), cefoxitin sodium salt (FOX, Sigma-Aldrich, CAS
# buffer only in 10 mM HEPES (pH 7.5 ) for 30 min at 37 °C. Samples were then
# incubated with 10 μM Mero-sCy5 or Bocillin FL for 60 min at 37 °C. Samples were
# denatured with 1X TCEP SDS-PAGE loading dye by heating (10 min, 75 °C). Protein (1
# μg/lane) was resolved via SDS-PAGE on 10% Bis-Tris gels (Bio-Rad, 1X XT MES
# running buffer). Triplicate samples of each enzyme were prepared independently and
# [3] = tested on: β-lactam targets in M9510 whole-cell lysates; test: β-lactam competition of Mero-sCy5 labeling in whole-cell lysates; format: binding, Mycobacterium abscessus subsp. massiliense; details: drug 1 mM, then Mero-sCy5 5 μM
# [4] = tested on: β-lactam targets in Mab 19977 whole-cell lysates; test: as above; format: binding, Mycobacterium abscessus subsp. abscessus; details: Mab 19977 lysate; drug 1 mM, then Mero-sCy5 5 μM
# [5] = molecular target: MAB_4800 (Mycobacteroides abscessus, UniProt B1MM83); test: β-lactam IC50 by drug treatment then Bocillin FL labeling, in-gel fluorescence; format: binding
# [6] = tested on: Mab 19977 (ATCC 19977, subsp. abscessus); parameters: method as in not given; details: supplemented Middlebrook 7H9 broth, reported values, ref not given; cited from earlier work
# [7] = molecular target: PbpB (Mycobacteroides abscessus, UniProt B1MP31); test: β-lactam IC50 by drug treatment then Bocillin FL labeling, in-gel fluorescence; format: binding
# [8] = tested on: M9510 (clinical strain, subsp. massiliense); parameters: method as in not given; details: supplemented Middlebrook 7H9 broth, reported values, ref not given; cited from earlier work
# [9] = tested on: M. abscessus subsp. massiliense (n = 754 isolates); parameters: method as in Hunkins et al.; details: ref Hunkins et al.; cited from earlier work
# [10] = molecular target: T3, MAB_0330 (Mycobacteroides abscessus, UniProt B1MFM9); test: β-lactam IC50 by drug treatment then Bocillin FL labeling, in-gel fluorescence; format: binding
# [11] = molecular target: T1, Ldt4; test: as above; format: binding, Mycobacterium abscessus
# [12] = molecular target: T3, MAB_0330; test: β-lactam competition of ABP labeling, recombinant enzyme; format: binding; details: drug 500 μM, 30 min 37 °C, then 10 μM Mero-sCy5 or Bocillin FL
# [13] = tested on: M. abscessus subsp. abscessus (n = 1344 isolates); parameters: method as in Hunkins et al.; details: ref Hunkins et al.; cited from earlier work
# [14] = molecular target: T2, DacB2; test: β-lactam IC50 by drug treatment then Bocillin FL labeling, in-gel fluorescence; format: binding, Mycobacterium abscessus
# [15] = human, in vivo; cited from earlier work
# [16] = tested on: M9510 (clinical strain, subsp. massiliense); test: Reported MIC in supplemented Middlebrook 7H9 broth; format: cell-based, Mycobacterium abscessus subsp. massiliense; details: from past characterization of M9510, ref not given
# [17] = molecular target: Ldt4, PbpB, DacB2, and MAB_4800; test: β-lactam IC50, range over the four enzymes; format: binding, Mycobacterium abscessus
# [18] = tested on: M9510 whole-cell lysates (REP and CS); details: 10 μM probe
# Procedure: (§1) (D) Mero-sCy5- and (E) Bocillin FL-labeled 19977 and M9510 lysates (30 μg) were resolved by SDS-PAGE (12 μg/lane) and scanned for fluorescent signal.
# (§2) Normalized lysates were ABP-labeled, resolved by SDS-PAGE, and gels were scanned for fluorescent signal (Figure S3).
# (§3) In-Gel Analysis of Mero-sCy5 and Bocillin FL Binding
# (§4) Normalized total protein lysates (30 μg) were labeled with 10 μM Meropenem-sulfoCy5 6
# (§5) (Mero-sCy5) or 10 μM Bocillin FL (Invitrogen) for 60 min at RT, protected from light.
# (§6) Labeling reactions were quenched by the addition of 1x TCEP loading dye (5X stock:
# (§7) glycerol). Samples were heated to 75 °C for 10 min and resolved (12 μg/lane) via SDS-
# (§8) PAGE (Criterion Bis-Tris gels, XT-MES running buffer, Bio-Rad). Gels were de-stained
# (§9) of free probe overnight (30% methanol, 10% acetic acid in water) and scanned using
# (§10) Amersham Typhoon imager (Cytiva). Adjustment of image brightness and contrast and
# (§11) band intensity quantification were performed with Fiji7. Total protein staining was done
# (§12) using Coomassie R-250 (Thermo Scientific, CAS 6104-58-1) (Figure S3).
# [19] = tested on: Mab 19977 whole-cell lysates (REP and CS); details: Mab 19977 lysates, 10 μM probe
# Procedure: as §1, §2, §3, §4, §5, §6, §7, §8, §9, §10, §11, §12
# [20] = tested on: recombinant BlaMab; test: β-lactamase activity, nitrocefin hydrolysis; format: biochemical, Mycobacterium abscessus; details: data not shown
# [21] = tested on: Ldt2; parameters: method as in not given; details: nitrocefin hydrolysis by Mab Ldt2, previously found, ref not given, cited from earlier work
# [22] = tested on: O=C(Cc1cccs1)N[C@@H]1C(=O)N2C(C(=O)O)=C(/C=C/c3ccc([N+](=O)[O-])cc3[N+](=O)[O-])CS[C@H]12; test: purified protein, by the assay type; details: other: nitrocefin hydrolysis by MAB_3998 (20 μM), 37 °C
# Procedure: (B) Steady-state kinetic parameters for nitrocefin hydrolysis by Ldt4, PbpB, and MAB_3998.
# To further characterize our findings, we determined the steady-state kinetic parameters for the hydrolysis of nitrocefin by Ldt4, PbpB, and MAB_3998 (Figure B).
# Purified enzyme (Ldt4, 5 μM; PbpB, 20 μM; MAB_3998, 20 μM) or buffer alone was
# in a 96-well microplate in 50 mM Tris-Cl pH 8.0 at 4 °C, 150 mM NaCl. Nitrocefin
# hydrolysis was monitored at 486 nm on a microplate reader (30 sec intervals, 1-2 hr
# duration, 37 °C). For Ldt4 and PbpB, initial rates were calculated from 240-570 sec of
# the reaction. For MAB_3998, the initial rates were calculated from 120-1200 sec of the
# reaction. The velocity against substrate concentration was fit to a nonlinear regression
# assuming Michaelis-Menton steady-state kinetics in GraphPad Prism software.
# Calculations were done using technical triplicates from two (MAB_3998) or three (Ldt4,
# PbpB) separate experiments. Error is reported as standard deviation.
# [23] = substrate: O=C(Cc1cccs1)N[C@@H]1C(=O)N2C(C(=O)O)=C(/C=C/c3ccc([N+](=O)[O-])cc3[N+](=O)[O-])CS[C@H]12; test: Steady-state kinetics of nitrocefin hydrolysis; format: biochemical, Mycobacterium abscessus; details: 37 °C
# [24] = 0.5 μM enzyme, drug 30 min 37 °C, then 10 µM Bocillin FL
# [25] = IC50 Ldt4, 0.5 μM enzyme, drug 30 min 37 °C, then 10 µM Bocillin FL
# [26] = other: nitrocefin hydrolysis by Ldt4 (5 μM)
# [27] = other: nitrocefin hydrolysis by PbpB (20 μM)
# T3 sequence (B1MFM9 entry or part of it): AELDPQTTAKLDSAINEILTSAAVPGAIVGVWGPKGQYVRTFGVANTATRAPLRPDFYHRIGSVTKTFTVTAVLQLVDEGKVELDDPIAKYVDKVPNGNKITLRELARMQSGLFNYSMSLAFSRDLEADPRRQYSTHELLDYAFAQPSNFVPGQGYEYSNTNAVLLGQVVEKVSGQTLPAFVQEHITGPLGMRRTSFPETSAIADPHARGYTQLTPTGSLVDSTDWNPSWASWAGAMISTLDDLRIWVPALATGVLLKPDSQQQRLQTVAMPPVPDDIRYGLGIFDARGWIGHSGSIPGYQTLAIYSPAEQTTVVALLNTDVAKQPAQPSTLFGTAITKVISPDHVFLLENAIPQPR
# T2 sequence (B1MDJ1 entry or part of it): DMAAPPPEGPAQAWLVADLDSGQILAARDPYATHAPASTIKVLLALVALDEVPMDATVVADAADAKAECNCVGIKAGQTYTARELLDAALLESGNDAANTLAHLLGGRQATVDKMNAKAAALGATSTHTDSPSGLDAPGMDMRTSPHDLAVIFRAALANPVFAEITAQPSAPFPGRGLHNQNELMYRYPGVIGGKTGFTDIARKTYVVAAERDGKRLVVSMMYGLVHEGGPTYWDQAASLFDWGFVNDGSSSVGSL
# Sequence of MAB_4800 (B1MM83 entry or part of it): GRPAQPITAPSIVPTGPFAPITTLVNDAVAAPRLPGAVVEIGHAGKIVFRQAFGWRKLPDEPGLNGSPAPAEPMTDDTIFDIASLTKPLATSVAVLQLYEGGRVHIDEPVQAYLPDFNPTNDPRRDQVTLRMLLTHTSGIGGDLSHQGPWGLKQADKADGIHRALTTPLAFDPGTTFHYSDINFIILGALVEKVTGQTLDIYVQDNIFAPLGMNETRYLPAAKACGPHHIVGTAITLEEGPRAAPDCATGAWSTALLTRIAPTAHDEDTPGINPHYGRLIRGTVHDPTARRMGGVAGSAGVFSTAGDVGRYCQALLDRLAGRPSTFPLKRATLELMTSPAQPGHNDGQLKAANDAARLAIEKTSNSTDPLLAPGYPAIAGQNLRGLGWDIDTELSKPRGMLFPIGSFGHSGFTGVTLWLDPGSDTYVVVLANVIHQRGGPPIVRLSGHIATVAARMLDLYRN
molecule,measurement,setting,value
"NC(=O)[C@@H]1CC[C@@H]2CN1C(=O)N2OS(=O)(=O)O [AVI, avibactam]",inhibition of fluorescent ABP binding to Ldt4,[1],enhancement of Ldt4 binding by Mero-sCy5
same,inhibition of fluorescent ABP binding to DacB2,[2],intermediate inhibition
"C[C@H]1[C@H](NC(=O)/C(=N\OC(C)(C)C(=O)O)c2csc(N)n2)C(=O)N1S(=O)(=O)O [AZT, aztreonam]",inhibition of Mero-sCy5 labeling of targets in lysate,[3],largely ineffective inhibitors
same,inhibition of Mero-sCy5 labeling of targets in lysate,[4],largely ineffective inhibitors
"CO[C@@]1(NC(=O)Cc2cccs2)C(=O)N2C(C(=O)O)=C(COC(N)=O)CS[C@@H]21 [FOX, cefoxitin]",IC50,[5]; [24],> 1000 µM
same,IC50 MAB_4800,[5]; [24],did not inhibit
same,MIC,[6],64 µg/mL
same,IC50,[7]; [24],12 ± 4 µM
same,MIC,[8],64 µg/mL
same,inhibition of Mero-sCy5 labeling of targets in lysate,[3],inhibited many targets but not all
same,MIC90,[9],64 µg/mL
same,IC50,"[10]; fit not accurate, error unacceptably large (± 180 μM IPM, ± 240 μM FOX)",270 µM
same,IC50 Ldt4,[11]; [24],did not inhibit
same,IC50,[11]; [25],> 1000 µM
same,inhibition of fluorescent ABP binding to Ldt4,[1],did not inhibit
same,inhibition of fluorescent ABP binding to MAB_0330,[12],weakly inhibited
same,MIC90,[13],64 µg/mL
same,IC50,[14],0.4 ± 0.9 µM
same,fold more potent inhibition of DacB2 than IPM,[14]; IC50 comparison FOX vs IPM,5 fold
same,inhibition of Mero-sCy5 labeling of targets in lysate,[4],inhibited many targets but not all
same,"fCss,avg (median unbound average steady-state plasma concentration)",[15],4.0 µg/mL
"C[C@@H](O)[C@H]1C(=O)N2C(C(=O)O)=C(SCCN=CN)C[C@H]12 [IPM, imipenem]",IC50,[5],7 ± 3 µM
same,MIC,[6],8 µg/mL
same,IC50,[7],4 ± 2 µM
same,fold more potent inhibition of PbpB than FOX,[7]; IC50 comparison IPM vs FOX,3 fold
same,MIC,[8],24 µg/mL
same,inhibition of Mero-sCy5 labeling of targets in lysate,[3],abolished ABP labeling
same,MIC90,[9],16 µg/mL
same,IC50,[10],170 µM
same,IC50,"[11]; IC50 (best-fit value, example analysis Figure S8), Ldt4 with IPM, one experiment, 95% CI 1.796 to 11.10, R squared 0.8570",5.18 µM
same,IC50,[11]; [25],4 ± 2 µM
same,"HillSlope (best-fit value, example analysis Figure S8)","[11]; Ldt4 with IPM, one experiment",-1.416
same,MIC90,[13],16 µg/mL
same,IC50,[14],2 ± 1 µM
same,inhibition of Mero-sCy5 labeling of targets in lysate,[4],abolished ABP labeling
same,increased MIC in M9510 relative to 19977,[16],3 fold
same,"IC50 for the four enzymes, in mass units",[17],0.5 to 2 µg/mL
same,"fCss,avg (median unbound average steady-state plasma concentration)",[15],12.2 µg/mL
C[C@@H](O)[C@H]1C(=O)N2C(C(=O)O)=C(S[C@H]3C[C@@H](C(=O)N(C)C)N(C(=O)CCCCC[N+]4=C(/C=C/C=C/C=C5/N(C)c6ccc(S(=O)(=O)O)cc6C5(C)C)C(C)(C)c5cc(S(=O)(=O)[O-])ccc54)C3)[C@H](C)[C@H]12 [Mero-sCy5],targets labeled in gel-resolved lysate,[18],labeled more targets than Bocillin FL
same,targets labeled in gel-resolved lysate,[19],labeled more targets than Bocillin FL
"CC1(C)S[C@@H]2[C@H](NC(=O)Cc3ccccc3)C(=O)N2[C@H]1C(=O)O [PEN, penicillin G]",inhibition of Mero-sCy5 labeling of targets in lysate,[3],largely ineffective inhibitors
same,inhibition of Mero-sCy5 labeling of targets in lysate,[4],largely ineffective inhibitors
NCC[C@H](O)C(=O)N[C@@H]1C[C@H](N)[C@@H](O[C@H]2O[C@H](CN)[C@@H](O)[C@H](O)[C@H]2O)[C@H](O)[C@H]1O[C@H]1O[C@H](CO)[C@@H](O)[C@H](N)[C@H]1O [amikacin],susceptibility indicated by reported MIC,[6],susceptible
same,susceptibility indicated by reported MIC,[8],susceptible
CC1(C)S[C@@H]2[C@H](NC(=O)[C@H](N)c3ccc(O)cc3)C(=O)N2[C@H]1C(=O)O [amoxicillin],MIC,[6],> 256 µg/mL
same,MIC,[8],> 256 µg/mL
C=CC1=C(C(=O)O)N2C(=O)[C@@H](NC(=O)/C(=N\O)c3csc(N)n3)[C@H]2SC1 [cefdinir],MIC,[6],128 µg/mL
same,MIC,[8],128 µg/mL
CC(C)(O/N=C(\C(=O)N[C@@H]1C(=O)N2C(C(=O)[O-])=C(C[n+]3ccccc3)CS[C@H]12)c1csc(N)n1)C(=O)O [ceftazidime],MIC,[6],> 256 µg/mL
same,MIC,[8],> 256 µg/mL
C[C@@H](O)[C@H]1C(=O)N2C(C(=O)O)=C(S[C@@H]3CN[C@H](CNS(N)(=O)=O)C3)[C@H](C)[C@H]12 [doripenem],MIC,[6],16 µg/mL
same,MIC,[8],64 µg/mL
same,increased MIC in M9510 relative to 19977,[16],4 fold
C[C@@H](O)[C@H]1C(=O)N2C(C(=O)O)=C(S[C@@H]3CN[C@H](C(=O)N(C)C)C3)[C@H](C)[C@H]12 [meropenem],inhibition of Mero-sCy5 labeling of targets in lysate,[3],abolished ABP labeling
same,inhibition of Mero-sCy5 labeling of targets in lysate,[4],abolished ABP labeling
O=C(Cc1cccs1)N[C@@H]1C(=O)N2C(C(=O)O)=C(/C=C/c3ccc([N+](=O)[O-])cc3[N+](=O)[O-])CS[C@H]12 [nitrocefin],nitrocefin hydrolysis by BlaMab,[20],complete nitrocefin hydrolysis near instantaneously
same,maximal rate of hydrolysis,[21],0.33 µM/s
same,Km,[21]; read-out: affinity for nitrocefin (Km),328 µM
CO[C@H]1/C=C/O[C@@]2(C)Oc3c(C)c(O)c4c(c3C2=O)C2=NC3(CCN(CC(C)C)CC3)NC2=C(NC(=O)/C(C)=C\C=C\[C@H](C)[C@H](O)[C@@H](C)[C@@H](O)[C@@H](C)[C@H](OC(C)=O)[C@@H]1C)C4=O [rifabutin],susceptibility indicated by reported MIC,[6],susceptible
same,susceptibility indicated by reported MIC,[8],susceptible
MAB_3998 (Mycobacteroides abscessus ATCC 19977),Km,[22],150 ± 9 µM
same,kcat,[22],0.0022 ± 6.1e^-5 s^-1
same,kcat/Km,[22],14 M⁻¹ s⁻¹
B1,Km,[23]; [26],65 ± 7 µM
same,kcat,[23]; [26],0.0042 ± 2.0e^-4 s^-1
same,kcat/Km,[23]; [26],65 M⁻¹ s⁻¹
B2,Km,[23]; [27],220 ± 27 µM
same,kcat,[23]; [27],0.00075 ± 3.1e^-5 s^-1
same,kcat/Km,[23]; [27],3.4 M⁻¹ s⁻¹
